Reference: patent US9828605B2, “Composition for enhancing radiation sensitivity comprising PI4K isozyme inhibitor” (Seoul National University R&DB Foundation, priority 2015, dated 2017)

Experiments:
[1] = tested on: phosphorylation of PKC and AKT; experiment: immune blotting of phosphorylation after simeprevir treatment, U251; type: cell-based; settings: 24-72 hours of drug treatment, FIG. 5 right panel
Protocol: Simeprevir used as a hepatitis anti-C virus drug was treated and phosphorylation was verified through immune blotting after 24-72 hours of drug treatment. The result was illustrated in FIG. 5 (right panel).

[2] = tested on: human breast cancer cell lines BT-474; experiment: tumor xenograft model in vivo with radiation irradiation; parameters: species or system BALB/c athymic nude mouse; settings: simeprevir 10 mg/Kg to peritoneal cavity three times a week for two weeks + radiation 9 Gy (3 Gy three times a week); compared with other groups; FIG. 9
Protocol: In order to form a tumor xenograft model in vivo, 5×10^6 human breast cancer cell lines BT-474 were injected to a hind leg of a BALB/c athymic nude mouse. After 3 weeks, it was verified that the tumor was uniformly grown, and the mouse was randomly assigned to four groups of a control group, a simeprevir group, a radiation irradiation group, and a simeprevir+radiation irradiation group. The simeprevir was administrated to peritoneal cavity with a concentration of 10 mg/Kg three times a week for two weeks, and the radiation was irradiated with 9 Gy three times a week by 3 Gy by electron beam of 6 MeV while covering 1 cm bolus. After the entire treatment was finished, the size of the tumor was measured at an interval of about 1 week, and the result was illustrated in FIG. 9.

[3] = tested on: U251 cell line; experiment: colony formation assay after antiviral drug treatment and irradiation, U251; type: cell-based; settings: drug concentrations determined as 100 nM, 200 nM and 30 μM, FIGS. 5 to 7
Protocol: (§1) First, after 48 hours of siRNA transduction of Example 2, the cells were collected and 500 with 0 Gy, 1,000 with 2 Gy, 2,000 with 4 Gy, and 4,000 with 6 Gy cells were cultured on a plate according to a radiation dose. After it was checked that the cells were stably attached to a culture dish, radiation was treated with a radiation dose rate of 2.46 Gy per minute by 4 MV X-ray by using a linear accelerator, and the cells were cultured for about 14 days to 23 days until cell colonies were checked with the naked eye. The formed colonies were fixed with 100% methanol and then dyed with 0.5% crystal violet, and surviving fraction was calculated by counting the number of colonies including at least 50 cells. In the surviving fraction, an average of the number of cell colonies in three wells for each radiation dose was shown according to a linear-quadratic model using Kaleidagraph version 3.51 (Synergy Software, Reading, Pa.), and the result was illustrated in FIG. 2.
(§2) As the hepatitis anti-C virus drug, simeprevir (Olysio) (Janssen Pharmaceutica), sofosbuvir (sovaldi) (Gilead), and daclatasvir (Daklinza) (Bristol-Myers Squibb) were used. […]
(§3) After the determined amount of drug was treated in the brain tumor and breast cancer cell lines, the colony formation assay was performed by the same method as Experimental Example 1, and the result was illustrated in FIGS. 5 to 7.

[4] = tested on: BT-474 cell line; experiment: colony formation assay after antiviral drug treatment and irradiation, BT-474; type: cell-based, human; settings: drug concentrations determined as 100 nM, 200 nM and 30 μM, FIGS. 5 and 6
Protocol: as §1, §2, §3

`COc1ccc2c(O[C@@H]3C[C@H]4C(=O)N[C@]5(C(=O)NS(=O)(=O)C6CC6)C[C@H]5/C=C\CCCCN(C)C(=O)[C@@H]4C3)cc(-c3nc(C(C)C)cs3)nc2c1C` [simeprevir] was tested, and the “phosphorylation of AKT” value [1] was “reduction”, the “phosphorylation of PKC” value [1] was “reduction” and the “growth of the tumor” value [2] was “significantly inhibited”. The “sensitivity to radiation (colony formation assay)” value (shortened to “sensitivity to radiation”) [3] was “enhanced” and the “sensitivity to radiation” value [4] was “enhanced”.

With `CC(C)OC(=O)[C@H](C)N[P@](=O)(OC[C@H]1O[C@@H](n2ccc(=O)[nH]c2=O)[C@](C)(F)[C@@H]1O)Oc1ccccc1` [sofosbuvir] the “sensitivity to radiation” value [3] was “enhanced” and the “sensitivity to radiation” value [4] was “enhanced”.
